# Read-outs that look alike come from different tables or passages of the source.
# Key:
# [1] = molecular target: T1, SERT (Homo sapiens, UniProt P31645); assay: Electrophysiological measurement of methylphenidate binding kinetics to SERT (peak current inhibition and recovery); assay type: cell-based; set-up: expressed in transfected cells; conditions: for koff: peak current recovery after washout, read-out: dissociation rate koff from SERT; for association rate constant kon for binding to SERT / kon: y-intercept constrained to koff; for kon: read-out: association rate constant kon for binding to SERT
# Experimental: Accordingly, we explored the hypothesis that restricting the flexibility of extracellular loops may increase the affinity of methylphenidate. […] We therefore resorted to an electrophysiological approach, which relies on the substrate-induced peak current through SERT for determining the occupancy of the binding site by methylphenidate. […] The recordings were done in the presence of high internal Na^+ (152 mM) because a high internal Na^+ concentration eliminates the steady-state current component ([5]). The isolated peak current can be quantified with high precision ([5]). The association rate of methylphenidate in the absence (Fig. 9A) and presence (Fig. 9B) of 15B8 Fab was measured by applying 5-HT (30 μM) for 3 s to obtain the reference current. Cells were subsequently exposed to methylphenidate for time intervals varying between 0.2, 0.5, 1, 2, 5, and 10 s prior to eliciting a current by fresh superfusion with 5-HT. This allowed for monitoring the onset of the methylphenidate-induced inhibition of the peak current.
# Peak currents were isolated (i.e., the steady-state current was suppressed) by a high concentration of Na^+ (152 mM) in the internal solution in the patch pipet. Shown is the compilation of representative peak current traces from a single cell. […] The dashed lines were drawn by fitting the decline in peak current amplitude to an equation for a monoexponential decay to a residual activity. C and D, the experiments were carried out as outlined in panels A and B with 10, 30, 100, and 300 μM methylphenidate (MPH) in the absence (C) and presence of 300 nM 15B8 Fab 8 (D). The peak current reduction was normalized by dividing test currents by the reference current and plotted as a function of time. Data are means ± SD from three to seven independent recordings for each concentration of methylphenidate. […] Then, the peak currents were elicited by rapid application of 30 μM 5-HT with 0, 0.2, 0.5, 1, 2, 5, and 10 s delay to observe its recovery.
# [2] = molecular target: T1, SERT; assay: [^3H]imipramine binding to membranes harboring GFP-tagged SERT; set-up: expressed in transfected cells; membrane preparation; conditions: in the presence of 8B6 scFv, 15B8 Fab, or antiSERT-EL4 antibody; data not shown
# T1 sequence (P31645 whole entry): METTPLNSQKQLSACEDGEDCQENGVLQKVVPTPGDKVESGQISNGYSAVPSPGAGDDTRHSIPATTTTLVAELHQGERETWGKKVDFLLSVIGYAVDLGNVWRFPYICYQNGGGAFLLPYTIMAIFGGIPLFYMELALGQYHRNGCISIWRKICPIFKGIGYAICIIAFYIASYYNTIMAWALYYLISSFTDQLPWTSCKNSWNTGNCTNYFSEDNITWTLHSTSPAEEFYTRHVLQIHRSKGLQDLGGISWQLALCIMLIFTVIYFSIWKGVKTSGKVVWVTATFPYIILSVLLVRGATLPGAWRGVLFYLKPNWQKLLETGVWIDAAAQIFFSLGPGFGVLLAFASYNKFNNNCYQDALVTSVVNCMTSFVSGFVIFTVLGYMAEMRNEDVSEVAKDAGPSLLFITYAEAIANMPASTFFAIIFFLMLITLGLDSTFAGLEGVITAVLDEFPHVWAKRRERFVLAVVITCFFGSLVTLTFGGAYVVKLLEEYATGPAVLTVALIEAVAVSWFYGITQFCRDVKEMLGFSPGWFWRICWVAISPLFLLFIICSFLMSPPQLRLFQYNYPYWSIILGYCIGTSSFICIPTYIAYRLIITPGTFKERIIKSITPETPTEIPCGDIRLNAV
compound,measurement,setting,value
COC(=O)C(c1ccccc1)C1CCCCN1 (stereo not drawn) [methylphenidate],apparent on-rate kapp,"[1]; 10 μM methylphenidate, absence of 15B8 Fab",0.36 ± 0.12 s⁻¹
same,apparent on-rate kapp,"[1]; 10 μM methylphenidate, presence of 300 nM 15B8 Fab",1.20 ± 0.42 s⁻¹
same,apparent on-rate kapp,"[1]; 30 μM methylphenidate, absence of 15B8 Fab",0.87 ± 0.20 s⁻¹
same,apparent on-rate kapp,"[1]; 30 μM methylphenidate, presence of 300 nM 15B8 Fab",1.29 ± 0.27 s⁻¹
same,apparent on-rate kapp,"[1]; 100 μM methylphenidate, absence of 15B8 Fab",1.53 ± 0.40 s⁻¹
same,apparent on-rate kapp,"[1]; 100 μM methylphenidate, presence of 300 nM 15B8 Fab",2.72 ± 0.45 s⁻¹
same,apparent on-rate kapp,"[1]; 300 μM methylphenidate, absence of 15B8 Fab",3.46 ± 0.51 s⁻¹
same,apparent on-rate kapp,"[1]; 300 μM methylphenidate, presence of 300 nM 15B8 Fab",6.54 ± 1.04 s⁻¹
same,koff,[1]; absence of 15B8 Fab,0.89 ± 0.14 s⁻¹
same,association rate constant kon for binding to SERT,[1]; absence of 15B8 Fab,8.55 ± 1.03 × 10^3 M^−1 s^−1
same,kon,[1]; absence of 15B8 Fab,8950 ± 1.03e+06 M⁻¹ s⁻¹
same,koff,[1]; presence of 15B8 Fab (300 nM),0.8 ± 0.12 s⁻¹
same,association rate constant kon for binding to SERT,[1]; presence of 15B8 Fab (300 nM),1.92 ± 0.06 × 10^4 M^−1 s^−1
same,kon,[1]; presence of 15B8 Fab (300 nM),19600 ± 6e+06 M⁻¹ s⁻¹
same,competition curve versus [^3H]imipramine,[2],shift to the left

# — PMC8253976, “Extracellular loops of the serotonin transporter act as a selectivity filter for drug binding” (The Journal of Biological Chemistry, 2021)
